*1 amine or outer side, *2 acyl side, *3 side chain or, on linkers, in order; H or OH if unused. Where a SMILES comes first, the peptide text is derived from it. Bridges are numbered along the chain shown (N, C = ends). [ ]: non-standard residue; d: D form. ξ: configuration not given here. Trp(1-CH2COOH) = N[C@@H](Cc1cn(CC(=O)O)c2ccccc12)C(=O)O; Phe(3,4,5-F3) = N[C@@H](Cc1cc(F)c(F)c(F)c1)C(=O)O; Phe(3,4-F2) = N[C@@H](Cc1ccc(F)c(F)c1)C(=O)O; Phe(4-CH2NH2) = NCc1ccc(C[C@H](N)C(=O)O)cc1; NMePhe(4-F) = CN[C@@H](Cc1ccc(F)cc1)C(=O)O; NMeW = CN[C@@H](Cc1c[nH]c2ccccc12)C(=O)O; dPro(4S-Me) = C[C@@H]1CN[C@@H](C(=O)O)C1; d(cisHyp) = O=C(O)[C@H]1C[C@@H](O)CN1; NMeY = CN[C@@H](Cc1ccc(O)cc1)C(=O)O; Hyp = O=C(O)[C@@H]1C[C@@H](O)CN1; NMeF = CN[C@@H](Cc1ccccc1)C(=O)O; X1 = O=C([C@H]1COCCN1[*:1])[*:2]; dNMeF = CN[C@H](Cc1ccccc1)C(=O)O; dHyp = O=C(O)[C@H]1C[C@H](O)CN1; NMeNle = CCCC[C@H](NC)C(=O)O; Pip = O=C(O)[C@@H]1CCCCN1; dPip = O=C(O)[C@H]1CCCCN1; hSer = N[C@@H](CCO)C(=O)O; NMeA = CN[C@@H](C)C(=O)O; Orn = NCCC[C@H](N)C(=O)O; dThz = O=C(O)[C@H]1CSCN1; Dab = NCC[C@H](N)C(=O)O; Dap = NC[C@H](N)C(=O)O; ξC = NC(CS)C(=O)O; Sar = CNCC(=O)O
biological target: T1, Human PD-L1/PD-1 (Homo sapiens, UniProt Q9NZQ7); experiment: HTRF Human PD-L1/PD-1 binding assay (PD-1-Ig/PD-L1-His); settings: PD-L1-His 10 nM, PD-1-Ig 20 nM; class symbol; read-out: HTRF Human PD-L1/PD-1 Binding Assay IC50 Range
T1 construct: TVMV protease cleavage site (C); made in house; host or cells: HEK293T cells
T1 sequence (Q9NZQ7 with tags, fused parts or gaps): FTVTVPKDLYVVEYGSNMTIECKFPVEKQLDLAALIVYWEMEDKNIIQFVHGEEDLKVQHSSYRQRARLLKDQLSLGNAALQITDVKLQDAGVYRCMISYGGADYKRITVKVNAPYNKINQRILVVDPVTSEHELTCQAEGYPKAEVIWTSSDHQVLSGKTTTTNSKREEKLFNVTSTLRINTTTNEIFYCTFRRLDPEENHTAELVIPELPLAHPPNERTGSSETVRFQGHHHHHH
Summary of the method: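 Truncated Fc-fused human PD-1 (aa 25-167) at 20 nM and His-tagged PD-L1 (aa 18-239) at 10 nM final are used, with peptides preincubated 15 min with PD-L1. Detection uses europium-cryptate anti-Ig and APC anti-His antibodies; 665/620 nm ratio.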

Row | Structure (SMILES) | IC50
1 | CCCC[C@H]1C(=O)N(C)[C@@H](CCCC)C(=O)N[C@@H](CCCNC(=N)N)C(=O)NC(C(=O)NCC(N)=O)CSCC(=O)N[C@@H](Cc2ccc(O)cc2)C(=O)N(C)[C@@H](C)C(=O)N[C@@H](CC(N)=O)C(=O)N2CCC[C@H]2C(=O)N[C@@H](CC(N)=O)C(=O)N[C@@H](CC(N)=O)C(=O)N2C[C@H](O)C[C@H]2C(=O)N[C@@H](Cc2c[nH]c3ccccc23)C(=O)N[C@@H](CO)C(=O)N[C@@H](Cc2c[nH]c3ccccc23)C(=O)N1C (stereo partly drawn) [Example 10014] ({CH2CO}-Y[NMeA]NPNN[Hyp]WSW[NMeNle][NMeNle]R[ξC]G-NH2; thioether N-14) | 10 to 99.9 nM
2 | CCCC[C@H]1C(=O)N(C)[C@@H](CCCC)C(=O)N[C@@H](CN)C(=O)N[C@H](C(=O)NCC(N)=O)CSCC(=O)N[C@@H](Cc2ccc(O)cc2)C(=O)N(C)[C@@H](C)C(=O)N[C@@H](CC(N)=O)C(=O)N2CCC[C@H]2C(=O)N[C@@H](Cc2cnc[nH]2)C(=O)N[C@@H](CCC(=O)O)C(=O)N2C[C@H](O)C[C@H]2C(=O)N[C@@H](Cc2c[nH]c3ccccc23)C(=O)N[C@@H](CO)C(=O)N[C@@H](Cc2cn(CC(=O)O)c3ccccc23)C(=O)N1C [Example 6244] ({CH2CO}-Y[NMeA]NPHE[Hyp]WS[Trp(1-CH2COOH)][NMeNle][NMeNle][Dap]CG-NH2; thioether N-14) | 1 to 9.9 nM
3 | CCCC[C@H]1C(=O)N(C)[C@@H](CCCC)C(=O)N[C@@H](CC(C)C)C(=O)N[C@H](C(=O)NCC(N)=O)CSCC(=O)N[C@@H](Cc2ccc(O)cc2)C(=O)N(C)[C@@H](C)C(=O)N[C@@H](CC(=O)O)C(=O)N2CCC[C@H]2C(=O)N[C@@H](Cc2cnc[nH]2)C(=O)N[C@@H](CCC(N)=O)C(=O)N2C[C@H](O)C[C@H]2C(=O)N[C@@H](Cc2c[nH]c3ccccc23)C(=O)N[C@@H](CCN)C(=O)N[C@@H](Cc2cn(CC(=O)O)c3ccccc23)C(=O)N1C [Example 6416] ({CH2CO}-Y[NMeA]DPHQ[Hyp]W[Dab][Trp(1-CH2COOH)][NMeNle][NMeNle]LCG-NH2; thioether N-14) | 10 to 99.9 nM
4 | CCCC[C@H]1C(=O)N(C)[C@@H](CCCC)C(=O)N[C@@H](CCC(=O)O)C(=O)N[C@H](C(=O)NCC(N)=O)CSCC(=O)N[C@@H](Cc2ccc(O)cc2)C(=O)N2CCCC[C@H]2C(=O)N[C@@H](CC(N)=O)C(=O)N2CCC[C@H]2C(=O)N[C@@H](CO)C(=O)N[C@@H](CC(C)C)C(=O)N2C[C@H](O)C[C@H]2C(=O)N[C@@H](Cc2c[nH]c3ccccc23)C(=O)N[C@@H](CCN)C(=O)N[C@@H](Cc2cn(CC(=O)O)c3ccccc23)C(=O)N1C [Example 1305] ({CH2CO}-Y[Pip]NPSL[Hyp]W[Dab][Trp(1-CH2COOH)][NMeNle][NMeNle]ECG-NH2; thioether N-14) | 1 to 9.9 nM
5 | CCCC[C@H]1C(=O)N(C)[C@@H](CCCC)C(=O)N[C@@H](CCCNC(=N)N)C(=O)NC(C(=O)NCC(N)=O)CSCC(=O)N[C@@H](Cc2ccc(O)cc2)C(=O)N(C)[C@@H](C)C(=O)N[C@@H](CC(N)=O)C(=O)N2CCC[C@H]2C(=O)N[C@@H](CCO)C(=O)N[C@@H](CC(C)C)C(=O)N2C[C@H](O)C[C@H]2C(=O)N[C@@H](Cc2c[nH]c3ccccc23)C(=O)N[C@@H](CO)C(=O)N[C@@H](Cc2c[nH]c3ccccc23)C(=O)N1C (stereo partly drawn) [Example 9127] ({CH2CO}-Y[NMeA]NP[hSer]L[Hyp]WSW[NMeNle][NMeNle]R[ξC]G-NH2; thioether N-14) | 1 to 9.9 nM
6 | CCCC[C@H]1C(=O)N(C)[C@@H](CCCC)C(=O)N[C@@H](CCC(=O)O)C(=O)N[C@H](C(=O)NCC(N)=O)CSCC(=O)N[C@@H](Cc2ccc(O)cc2)C(=O)N(C)[C@@H](C)C(=O)N[C@@H](CC(=O)O)C(=O)N2CCC[C@H]2C(=O)N[C@@H](Cc2cnc[nH]2)C(=O)N[C@@H](CCC(=O)O)C(=O)N2C[C@H](O)C[C@H]2C(=O)N[C@@H](Cc2c[nH]c3ccccc23)C(=O)N[C@@H](CCC(=O)O)C(=O)N[C@@H](Cc2c[nH]c3ccccc23)C(=O)N1C [Example 5236] ({CH2CO}-Y[NMeA]DPHE[Hyp]WEW[NMeNle][NMeNle]ECG-NH2; thioether N-14) | 1 to 9.9 nM
7 | CCCC[C@H]1C(=O)N(C)[C@@H](CCCC)C(=O)N[C@@H](CCCN)C(=O)N[C@H](C(=O)NCC(N)=O)CSCC(=O)N[C@@H](Cc2ccc(OC)cc2)C(=O)N(C)[C@@H](C)C(=O)N[C@@H](CC(N)=O)C(=O)N2CCC[C@H]2C(=O)N[C@@H](Cc2cnc[nH]2)C(=O)N[C@@H](CCCCN)C(=O)N2C[C@H](O)C[C@H]2C(=O)N[C@@H](Cc2c[nH]c3ccccc23)C(=O)N[C@@H](CCN)C(=O)N[C@@H](Cc2c[nH]c3ccccc23)C(=O)N1C [Example 7093] ({CH2CO}-Y(Me)[NMeA]NPHK[Hyp]W[Dab]W[NMeNle][NMeNle][Orn]CG-NH2; thioether N-14) | 1 to 9.9 nM

More lines, now with the values ahead:

Row | IC50 | Structure (SMILES)
8 | 10 to 99.9 nM | CCCC[C@H]1C(=O)N[C@@H](CN)C(=O)N[C@H](C(=O)NCC(N)=O)CSCC(=O)N[C@@H](Cc2ccc(O)cc2)C(=O)N(C)[C@@H](C)C(=O)N[C@@H](CC(N)=O)C(=O)N2CCC[C@H]2C(=O)N[C@@H](Cc2c[nH]cn2)C(=O)N[C@@H](CCC(=O)O)C(=O)N2C[C@H](O)C[C@H]2C(=O)N[C@@H](Cc2c[nH]c3ccccc23)C(=O)N[C@@H](CCN)C(=O)N[C@@H](Cc2c[nH]c3ccccc23)C(=O)N(C)[C@@H](Cc2c[nH]c3ccccc23)C(=O)N1C [Example 5160] ({CH2CO}-Y[NMeA]NPHE[Hyp]W[Dab]W[NMeW][NMeNle][Dap]CG-NH2; thioether N-14)
9 | 10 to 99.9 nM | CCCC[C@H]1C(=O)N2CCC[C@@H]2C(=O)N[C@@H](CC(=O)O)C(=O)N[C@@H](C)C(=O)N(C)[C@@H](Cc2ccccc2)C(=O)N[C@@H](Cc2ccc(O)cc2)C(=O)N2CSC[C@@H]2C(=O)N[C@@H](Cc2c[nH]c3ccccc23)C(=O)N[C@@H](Cc2ccc(O)cc2)C(=O)N[C@@H](CC(C)C)C(=O)N[C@H](C(=O)NCC(N)=O)CSCC(=O)N[C@@H](Cc2ccccc2)C(=O)N(C)[C@@H](Cc2ccccc2)C(=O)N1C [Example 10088] ({CH2CO}-F[NMeF][NMeNle][dP]DA[NMeF]Y[dThz]WYLCG-NH2; thioether N-13)
10 | 10 to 99.9 nM | CCCC[C@H]1C(=O)N2C[C@H](O)C[C@@H]2C(=O)N[C@@H](CC(=O)O)C(=O)N[C@@H](C(C)C)C(=O)N(C)[C@@H](Cc2ccccc2)C(=O)N[C@@H](CCC(=O)O)C(=O)N2C[C@@H](O)C[C@@H]2C(=O)N[C@@H](Cc2c[nH]c3ccccc23)C(=O)N[C@@H](Cc2ccc(O)cc2)C(=O)N[C@@H](CCCN)C(=O)N[C@H](C(=O)NCC(N)=O)CSCC(=O)N[C@@H](Cc2cc(F)c(F)c(F)c2)C(=O)N(C)[C@@H](Cc2ccccc2)C(=O)N1C [Example 9374] ({CH2CO}-[Phe(3,4,5-F3)][NMeF][NMeNle][d(cisHyp)]DV[NMeF]E[dHyp]WY[Orn]CG-NH2; thioether N-13)
11 | 1 to 9.9 nM | CCCC[C@H]1C(=O)N2C[C@H](O)C[C@@H]2C(=O)N[C@@H](CC(=O)O)C(=O)N[C@@H](C(C)C)C(=O)N(C)[C@@H](Cc2ccccc2)C(=O)N[C@@H](CCC(=O)O)C(=O)N2CCOC[C@@H]2C(=O)N[C@@H](Cc2c[nH]c3ccccc23)C(=O)N[C@@H](Cc2ccc(O)cc2)C(=O)N[C@@H](CCCCN)C(=O)N[C@H](C(=O)NCC(N)=O)CSCC(=O)N[C@@H](Cc2cc(F)c(F)c(F)c2)C(=O)N(C)[C@@H](Cc2ccc(F)cc2)C(=O)N1C [Example 10592] ({CH2CO}-[Phe(3,4,5-F3)][NMePhe(4-F)][NMeNle][d(cisHyp)]DV[NMeF]E[X1]WYKCG-NH2; thioether N-13)
12 | 10 to 99.9 nM | CCCC[C@H]1C(=O)N(C)CC(=O)N[C@@H](CC(=O)O)C(=O)N[C@@H](C)C(=O)N(C)[C@@H](Cc2ccccc2)C(=O)N[C@@H](Cc2ccc(O)cc2)C(=O)N2CCCC[C@@H]2C(=O)N[C@@H](Cc2c[nH]c3ccccc23)C(=O)N[C@@H](Cc2ccc(O)cc2)C(=O)N[C@@H](CC(C)C)C(=O)N[C@H](C(=O)NCC(N)=O)CSCC(=O)N[C@@H](Cc2ccccc2)C(=O)N(C)[C@@H](Cc2ccccc2)C(=O)N1C [Example 10081] ({CH2CO}-F[NMeF][NMeNle][Sar]DA[NMeF]Y[dPip]WYLCG-NH2; thioether N-13)
13 | 10 to 99.9 nM | CCCC[C@H]1C(=O)N(C)CC(=O)N[C@@H](CC(N)=O)C(=O)N[C@@H](C(C)C)C(=O)N(C)[C@@H](Cc2ccccc2)C(=O)N[C@@H](CC(=O)O)C(=O)N(C)CC(=O)N[C@@H](Cc2c[nH]c3ccccc23)C(=O)N[C@@H](Cc2ccc(CN)cc2)C(=O)N[C@@H](CC(C)C)C(=O)N[C@H](C(=O)NCC(N)=O)CSCC(=O)N[C@@H](Cc2ccccc2)C(=O)N(C)[C@@H](Cc2ccccc2)C(=O)N1C [Example 3212] ({CH2CO}-F[NMeF][NMeNle][Sar]NV[NMeF]D[Sar]W[Phe(4-CH2NH2)]LCG-NH2; thioether N-13)
14 | 10 to 99.9 nM | CCCC[C@H]1C(=O)N2CCC[C@@H]2C(=O)N[C@@H](CC(=O)O)C(=O)N[C@@H](C(C)C)C(=O)N(C)[C@@H](Cc2ccccc2)C(=O)N[C@@H](CCC(=O)O)C(=O)N2CCOC[C@@H]2C(=O)N[C@@H](Cc2c[nH]c3ccccc23)C(=O)N[C@@H](Cc2ccc(O)cc2)C(=O)N[C@@H](CCCN)C(=O)N[C@H](C(=O)NCC(N)=O)CSCC(=O)N[C@@H](Cc2cc(F)c(F)c(F)c2)C(=O)N(C)[C@@H](Cc2ccc(O)cc2)C(=O)N1C [Example 10618] ({CH2CO}-[Phe(3,4,5-F3)][NMeY][NMeNle][dP]DV[NMeF]E[X1]WY[Orn]CG-NH2; thioether N-13)
15 | 10 to 99.9 nM | CCCC[C@H]1C(=O)N2C[C@@H](C)C[C@@H]2C(=O)N[C@@H](CC(=O)O)C(=O)N[C@@H](C(C)C)C(=O)N(C)[C@H](Cc2ccccc2)C(=O)N[C@@H](Cc2ccc(OC)cc2)C(=O)N2C[C@@H](O)C[C@@H]2C(=O)N[C@@H](Cc2c[nH]c3ccccc23)C(=O)N[C@@H](Cc2ccc(O)cc2)C(=O)N[C@@H](CCCN)C(=O)N[C@H](C(=O)NCC(N)=O)CSCC(=O)N[C@@H](Cc2ccc(F)c(F)c2)C(=O)N(C)[C@@H](Cc2ccccc2)C(=O)N1C [Example 9230] ({CH2CO}-[Phe(3,4-F2)][NMeF][NMeNle][dPro(4S-Me)]DV[dNMeF]Y(Me)[dHyp]WY[Orn]CG-NH2; thioether N-13)

Reference: US10538555B2, “Macrocyclic inhibitors of the PD-1/PD-L1 and CD80(B7-1)/PD-L1 protein/protein interactions” (BRISTOL-MYERS SQUIBB COMPANY, priority 2014, dated 2020)
